Data from patent publication US12233087B2, “Palladium hyaluronic acid particles and methods of managing cancer or angiogenic conditions” (Emory University, priority 2018, dated 2025).
Where two headings read alike, the source gives them in different places.

How the values were obtained:
[1] = at 25° C.; cited from earlier work
IGF1R = test: Immunohistochemistry of tumor xenografts for IGF1R; type: in vivo, human; conditions: IHC, LM36R xenograft
Experimental: Immunohistochemistry was performed to qualitatively assess expression of target genes. […] To assess the impact of our treatments on IGF1R expression, IHC was used to stain the tumor xenografts with antibodies against IGF1R.

melanoma = conditions: Clin Cancer Res. 2008, 14:5743-5748; cited from earlier work
[2] = tested on: LM36R human melanoma cells; test: LM36R vemurafenib-resistant melanoma xenograft tumor growth in nude mice; type: in vivo, athymic Nu/Nu nude male mice; conditions: 5 mg of drug/kg per injection, bi-weekly tail vein injections, 4 weeks, n=5 per group; p-value 0.048 at week 4
Experimental: Nude male mice were inoculated with LM36R (5.0×10^5 cells), a human cell line of melanoma that is resistant to vemurafenib, and then treated with HANPs over the course of four weeks.
Vemurafenib-resistant LM36R human melanoma cells were inoculated (5.0×10^5 cells/mouse) into the right flank of athymic Nu/Nu nude male mice (Crl:NU-Foxn1^nu strain code 088)) n=5 per group, and progression of tumor was recorded using the volume model of length×(width)×0.52. Mice were split into four groups consisting of a control (empty HANP), free Tris DBA-Pd, HANP with Tris DBA-Pd, and HANP with Tris DBA-Pd and aIGF1R antibody. Free Tris DBA-Pd was first dissolved in DMSO and then mixed with Kolliphor EL™. At last, the mixture was diluted by H2O before injection at concentration of 1 mg/mL of DBA. The ratio of DMSO, Kolliphor EL™ and H2O was controlled as 1:2:7 (v/v). The treatments were administered through bi-weekly tail vein injections over the course of 4 weeks (5 mg of drug/kg per injection). Tumor samples were analyzed for CD44 (hyaluronate receptor) expression by immunohistochemistry.

LM36R xenograft tumor = test: Gene array / whole-transcriptome expression analysis of treated tumors; type: in vivo, human
Experimental: Gene array was performed on all tumors. […] By varying the delivery process of a single drug, one might be able to prevent resistance.
RNA Extraction and QC: RNA was extracted using the Qiagen miRNEasy™ kit with on column DNAse treatment. Tissue was lysed and homogenized in Qiazol™ with a rotor-stator probe homogenizer for 40 seconds or until fully disrupted (1 ml Qiazol™ per 100 mg of tissue). RNA was eluted in 50 ul nuclease free water. One microliter was used to determine OD (optical density) values on a Nanodrop 1000. One microliter was used to assess sample profiles on the Agilent 2100 using the RNA 6000 Nano assay. Total RNA (250 ng) was amplified and labeled using the ThermoFisher Scientific Illuina™ TotalPrep™ RNA Amplification kit. Labeled cRNA was hybridized to Illumina HT12™ bead array. Image acquisition and data extraction were performed.

[3] = target: N-myristoyltransferase 1 (NMT1) (Homo sapiens, UniProt P30419); conditions: reported in the literature; cited from earlier work
N-myristoyltransferase 1 (NMT1), sequence (P30419 whole entry, species assumed): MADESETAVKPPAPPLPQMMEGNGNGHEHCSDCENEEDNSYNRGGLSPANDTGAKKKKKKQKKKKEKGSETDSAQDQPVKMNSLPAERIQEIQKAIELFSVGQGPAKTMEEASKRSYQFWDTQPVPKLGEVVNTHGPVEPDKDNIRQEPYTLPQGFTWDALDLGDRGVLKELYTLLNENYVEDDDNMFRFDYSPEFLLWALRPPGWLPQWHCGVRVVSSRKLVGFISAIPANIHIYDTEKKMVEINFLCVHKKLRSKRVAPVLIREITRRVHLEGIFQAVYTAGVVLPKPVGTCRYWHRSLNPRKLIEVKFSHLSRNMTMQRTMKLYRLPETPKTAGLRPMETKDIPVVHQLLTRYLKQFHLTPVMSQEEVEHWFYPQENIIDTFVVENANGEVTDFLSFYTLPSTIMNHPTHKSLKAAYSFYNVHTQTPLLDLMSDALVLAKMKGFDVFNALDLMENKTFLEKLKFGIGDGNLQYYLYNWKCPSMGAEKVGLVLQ

[4] = Dispersion of free vs HANP-loaded Tris DBA-Pd in water, FBS and cell culture media; type: physicochemical
Experimental: Hyaluronic Acid (HA)-5β-cholanic acid conjugate was synthesized by linking the carboxyl group of HA with the amino group on 5β-cholanic acid in the presence of EDC and NHS (FIG. 1). Hyaluronic Acid nanoparticles/Tris-DBA palladium were prepared. Water-insoluble Tris DBA-Pd was physically encapsulated into the hydrophobic cavities by a high-pressure homogenizer. This allowed for the dispersion of Tris DBA-Pd under physiological conditions. After freeze-drying, 40 mg of HANPs were dispersed in 8 mL of distilled water and 10 mg of Tris DBA-Pd was dissolved in 2 mL dimethyl sulfoxide (DMSO). The Tris DBA-Pd solution was slowly added into the HANP in high pressure homogenizer and homogenized for 5 min. Finally, the resulting mixture was dialyzed for 4 hours against an excess amount of distilled water to remove unloaded drugs and organic solvent, followed by lyophilization.
To verify the encapsulation of Tris DBA-Pd, the size changes were compared before and after loading.

[5] = general statement, water, cited from earlier work

Molecule: CCCCCCCC [octane]
- percent solubility in water by weight [1]: 0.63×10^−4 % w/w

Molecule: Tris DBA-Pd HANPs coupled with anti-IGF1R antibodies: Tris DBA-Pd HANP with anti-IGF1R monoclonal antibodies (Dalotuzumab) conjugated onto the surface
- intensity of IGF1R staining (IGF1R): decreased the intensity of IGF1R staining more so than the other groups

Molecule: O=C(/C=C/c1ccccc1)/C=C/c1ccccc1.O=C(/C=C/c1ccccc1)/C=C/c1ccccc1.O=C(/C=C/c1ccccc1)/C=C/c1ccccc1.[Pd].[Pd] [free Tris DBA-Pd, Tris(dibenzylideneacetone)dipalladium]
- effect on melanoma growth (melanoma): effective against melanoma growth
- inhibition of growth of LM36R tumors [2]: showed efficacy
- SCG2 (secretogranin 2) expression (LM36R xenograft tumor): downregulated
- activity against NMT1 [3]: activity against the enzyme N-myristoyltransferase 1
- behaviour in water, FBS, and cell culture media (precipitation / dispersion) [4]: immediately precipitated
- solubility ([5]; listed as Tris (dibenzylideneacetone) dipalladium): poor solubility
- solubility ([5]; listed as Tris DBA-Pd): Water-insoluble
